Experimental data published in patent US20260262643A1, “HERBICIDAL BENZOXAZINES” (FMC CORPORATION, priority 2022, published 2026).

Experiments:
[1] = test system: kochia; test: Test A preemergence; type: in vivo, Bassia scoparia; details: Bassia scoparia, pre-emergence, 240 h, read-out: Plant response rating, Kochia; for pest or weed control at 125 g/ha: 125 g ai/ha, visual injury after 10 days, 0 to 100 scale, 0 is no effect, 100 is complete control; for pest or weed control at 500 g/ha: 500 g ai/ha, 0 to 100 scale (0 no effect, 100 complete control), 10 days
In short: (§1)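 Loam/sand soil; pre-em directed soil spray at planting, post-em spray at 1–2 leaf (2–10 cm). Compound in non-phytotoxic solvent + surfactant. Greenhouse 10 d; visual injury vs untreated, 0 = no effect, 100 = complete control.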

[2] = test system: foxtail, giant; test: Test A preemergence; type: in vivo, Setaria faberi; details: Setaria faberi, pre-emergence, 240 h, read-out: Plant response rating, Foxtail, Giant; for pest or weed control at 125 g/ha: 125 g ai/ha, visual injury after 10 days, 0 to 100 scale, 0 is no effect, 100 is complete control; for pest or weed control at 500 g/ha: 500 g ai/ha, 0 to 100 scale (0 no effect, 100 complete control), 10 days
In short: as §1

[3] = test system: ryegrass, Italian; test: Test A preemergence; type: in vivo, Lolium multiflorum; details: Lolium multiflorum, pre-emergence, 240 h, read-out: Plant response rating, Ryegrass, Italian; for pest or weed control at 125 g/ha: 125 g ai/ha, visual injury after 10 days, 0 to 100 scale, 0 is no effect, 100 is complete control; for pest or weed control at 500 g/ha: 500 g ai/ha, 0 to 100 scale (0 no effect, 100 complete control), 10 days
In short: as §1

[4] = test system: blackgrass; test: Test A postemergence; type: in vivo, Alopecurus myosuroides; details: Alopecurus myosuroides, post-emergence, 240 h, postemergence, 10 days, 0 to 100 scale (0 no effect, 100 complete control); for pest or weed control at 125 g/ha: 125 g ai/ha, read-out: Blackgrass plant response rating; for pest or weed control at 500 g/ha: 500 g ai/ha, visual injury, read-out: Plant response rating, Blackgrass
In short: as §1

[5] = test system: soybean; test: Test A postemergence; type: in vivo, Glycine max; details: Glycine max, post-emergence, 240 h, postemergence, 10 days, 0 to 100 scale (0 no effect, 100 complete control); for plant injury at 125 g/ha: 125 g ai/ha, read-out: Soybean plant response rating; for plant injury at 500 g/ha: 500 g ai/ha, visual injury, read-out: Plant response rating, Soybean
In short: as §1

[6] = test system: oat, wild; test: Test A preemergence; type: in vivo, Avena fatua; details: Avena fatua, pre-emergence, 240 h, read-out: Plant response rating, Oat, Wild; for pest or weed control at 125 g/ha: 125 g ai/ha, visual injury after 10 days, 0 to 100 scale, 0 is no effect, 100 is complete control; for pest or weed control at 500 g/ha: 500 g ai/ha, 0 to 100 scale (0 no effect, 100 complete control), 10 days
In short: as §1

[7] = test system: corn; test: Test A preemergence; type: in vivo, Zea mays; details: Zea mays, pre-emergence, 240 h; for Corn plant response rating (crop injury, 0 = no effect, 100 = complete kill) at 125 g/ha: 125 g ai/ha, visual injury after 10 days, 0 to 100 scale, 0 is no effect, 100 is complete control; for Corn plant response rating (crop injury, 0 = no effect, 100 = complete kill) at 500 g/ha: 500 g ai/ha, 0 to 100 scale (0 no effect, 100 complete control), 10 days
In short: as §1

[8] = test system: ducksalad; test: Test B flooded paddy test; type: in vivo, Heteranthera limosa; details: Heteranthera limosa, 312 h, 250 g ai/ha, Flood, 13 days, 0 to 100 scale (0 no effect, 100 complete control); read-out: Plant response rating, Ducksalad
In short: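 Plants at the 2-leaf stage were flooded to 3 cm above the soil, and test compounds were applied directly into the paddy water, with that depth held throughout. After 13 days in a greenhouse, injury was rated visually against untreated controls on a 0–100 scale (100 = complete control).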

[9] = test system: wheat; test: Test A postemergence; type: in vivo, Triticum aestivum; details: Triticum aestivum, post-emergence, 240 h, postemergence, 10 days, 0 to 100 scale (0 no effect, 100 complete control); for plant injury at 125 g/ha: 125 g ai/ha, read-out: Wheat plant response rating; for plant injury at 500 g/ha: 500 g ai/ha, visual injury, read-out: Plant response rating, Wheat
In short: as §1

[10] = test system: pigweed, palmer; test: Test A preemergence; type: in vivo, Amaranthus palmeri; details: Amaranthus palmeri, pre-emergence, 240 h, read-out: Plant response rating, Pigweed, Palmer; for pest or weed control at 125 g/ha: 125 g ai/ha, visual injury after 10 days, 0 to 100 scale, 0 is no effect, 100 is complete control; for pest or weed control at 500 g/ha: 500 g ai/ha, 0 to 100 scale (0 no effect, 100 complete control), 10 days
In short: as §1

[11] = test system: horseweed; test: Test A postemergence; type: in vivo, Erigeron canadensis; details: Erigeron canadensis, post-emergence, 240 h, postemergence, 10 days, 0 to 100 scale (0 no effect, 100 complete control); for pest or weed control at 125 g/ha: 125 g ai/ha, read-out: Horseweed plant response rating; for pest or weed control at 500 g/ha: 500 g ai/ha, visual injury, read-out: Plant response rating, Horseweed
In short: as §1

[12] = test system: ragweed; test: Test A postemergence; type: in vivo, Ambrosia artemisiifolia; details: Ambrosia artemisiifolia, post-emergence, 240 h, postemergence, 10 days, 0 to 100 scale (0 no effect, 100 complete control); for pest or weed control at 125 g/ha: 125 g ai/ha, read-out: Ragweed plant response rating; for pest or weed control at 500 g/ha: 500 g ai/ha, visual injury, read-out: Plant response rating, Ragweed
In short: as §1

[13] = test system: oat, wild; test: Test A postemergence; type: in vivo, Avena fatua; details: Avena fatua, post-emergence, 240 h, postemergence, 10 days, 0 to 100 scale (0 no effect, 100 complete control); for pest or weed control at 125 g/ha: 125 g ai/ha, read-out: Oat, Wild plant response rating; for pest or weed control at 500 g/ha: 500 g ai/ha, visual injury, read-out: Plant response rating, Oat, Wild
In short: as §1

[14] = test system: wheat; test: Test A preemergence; type: in vivo, Triticum aestivum; details: Triticum aestivum, pre-emergence, 240 h, read-out: Plant response rating, Wheat; for plant injury at 125 g/ha: 125 g ai/ha, visual injury after 10 days, 0 to 100 scale, 0 is no effect, 100 is complete control; for plant injury at 500 g/ha: 500 g ai/ha, 0 to 100 scale (0 no effect, 100 complete control), 10 days
In short: as §1

C[C@H]1CN(C(=O)c2cccc(-n3cnc(C4CCC4)n3)c2)c2cccc(Cl)c2O1 [Compound 93, [(2S)-8-Chloro-2,3-dihydro-2-methyl-4H-1,4-benzoxazin-4-yl][3-(3-cyclobutyl-1H-1,2,4-triazol-1-yl)phenyl]methanone]
pest or weed control at 125 g/ha [1]: 50%
pest or weed control at 500 g/ha [1]: 100%
pest or weed control at 125 g/ha [2]: 80%
pest or weed control at 500 g/ha [2]: 100%
pest or weed control at 125 g/ha [3]: 90%
pest or weed control at 500 g/ha [3]: 100%
pest or weed control at 125 g/ha [4]: 70%
pest or weed control at 500 g/ha [4]: 90%
plant injury at 125 g/ha [5]: 100%
plant injury at 500 g/ha [5]: 100%
pest or weed control at 125 g/ha [6]: 20%
pest or weed control at 500 g/ha [6]: 90%
Corn plant response rating (crop injury, 0 = no effect, 100 = complete kill) at 125 g/ha [7]: 10%
Corn plant response rating (crop injury, 0 = no effect, 100 = complete kill) at 500 g/ha [7]: 10%
pest or weed control at 250 g/ha [8]: 0%
plant injury at 125 g/ha [9]: 20%
plant injury at 500 g/ha [9]: 20%
pest or weed control at 125 g/ha [10]: 90%
pest or weed control at 500 g/ha [10]: 100%
pest or weed control at 125 g/ha [11]: 0%
pest or weed control at 500 g/ha [11]: 40%
pest or weed control at 125 g/ha [12]: 50%
pest or weed control at 500 g/ha [12]: 50%
pest or weed control at 125 g/ha [13]: 20%
pest or weed control at 500 g/ha [13]: 70%
plant injury at 125 g/ha [14]: 0%
plant injury at 500 g/ha [14]: 10%

CCc1ccc(-n2cnc(C(C)C)n2)cc1C(=O)N1C[C@H](C)Oc2c(Cl)cccc21 [Compound 94, [(2S)-8-Chloro-2,3-dihydro-2-methyl-4H-1,4-benzoxazin-4-yl][2-ethyl-5-[3-(1-methylethyl)-1H-1,2,4-triazol-1-yl]phenyl]methanone]
pest or weed control at 125 g/ha [1]: 90%
pest or weed control at 500 g/ha [1]: 100%
pest or weed control at 125 g/ha [2]: 100%
pest or weed control at 500 g/ha [2]: 100%
pest or weed control at 125 g/ha [3]: 90%
pest or weed control at 500 g/ha [3]: 100%
pest or weed control at 125 g/ha [4]: 60%
pest or weed control at 500 g/ha [4]: 90%
plant injury at 125 g/ha [5]: 100%
plant injury at 500 g/ha [5]: 100%
pest or weed control at 125 g/ha [6]: 40%
pest or weed control at 500 g/ha [6]: 90%
Corn plant response rating (crop injury, 0 = no effect, 100 = complete kill) at 125 g/ha [7]: 60%
Corn plant response rating (crop injury, 0 = no effect, 100 = complete kill) at 500 g/ha [7]: 90%
pest or weed control at 250 g/ha [8]: 70%
plant injury at 125 g/ha [9]: 30%
plant injury at 500 g/ha [9]: 70%
pest or weed control at 125 g/ha [10]: 100%
pest or weed control at 500 g/ha [10]: 100%
pest or weed control at 125 g/ha [11]: 0%
pest or weed control at 500 g/ha [11]: 50%
pest or weed control at 125 g/ha [12]: 50%
pest or weed control at 500 g/ha [12]: 50%
pest or weed control at 125 g/ha [13]: 80%
pest or weed control at 500 g/ha [13]: 80%
plant injury at 125 g/ha [14]: 50%
plant injury at 500 g/ha [14]: 90%

Cc1ccc(-n2cnc(C3CCC3)n2)cc1C(=O)N1C[C@H](C)Oc2c(Cl)cccc21 [Compound 96, [(2S)-8-Chloro-2,3-dihydro-2-methyl-4H-1,4-benzoxazin-4-yl][5-(3-cyclobutyl-1H-1,2,4-triazol-1-yl)-2-methylphenyl]methanone]
pest or weed control at 125 g/ha [1]: 30%
pest or weed control at 500 g/ha [1]: 100%
pest or weed control at 125 g/ha [2]: 100%
pest or weed control at 500 g/ha [2]: 100%
pest or weed control at 125 g/ha [3]: 100%
pest or weed control at 500 g/ha [3]: 100%
pest or weed control at 125 g/ha [4]: 50%
pest or weed control at 500 g/ha [4]: 90%
plant injury at 125 g/ha [5]: 100%
plant injury at 500 g/ha [5]: 100%
pest or weed control at 125 g/ha [6]: 50%
pest or weed control at 500 g/ha [6]: 80%
Corn plant response rating (crop injury, 0 = no effect, 100 = complete kill) at 125 g/ha [7]: 30%
Corn plant response rating (crop injury, 0 = no effect, 100 = complete kill) at 500 g/ha [7]: 50%
pest or weed control at 250 g/ha [8]: 65%
plant injury at 125 g/ha [9]: 30%
plant injury at 500 g/ha [9]: 40%
pest or weed control at 125 g/ha [10]: 100%
pest or weed control at 500 g/ha [10]: 100%
pest or weed control at 125 g/ha [11]: 40%
pest or weed control at 500 g/ha [11]: 80%
pest or weed control at 125 g/ha [12]: 60%
pest or weed control at 500 g/ha [12]: 70%
pest or weed control at 125 g/ha [13]: 30%
pest or weed control at 500 g/ha [13]: 80%
plant injury at 125 g/ha [14]: 20%
plant injury at 500 g/ha [14]: 50%

COCc1ncn(-c2cccc(C(=O)N3C[C@H](C)Oc4c(C)cccc43)c2)n1 [Compound 101, [(2S)-2,3-Dihydro-2,8-dimethyl-4H-1,4-benzoxazin-4-yl][3-[3-(methoxymethyl)-1H-1,2,4-triazol-1-yl]phenyl]methanone]
pest or weed control at 125 g/ha [1]: 20%
pest or weed control at 500 g/ha [1]: 90%
pest or weed control at 125 g/ha [2]: 90%
pest or weed control at 500 g/ha [2]: 100%
pest or weed control at 125 g/ha [3]: 80%
pest or weed control at 500 g/ha [3]: 90%
pest or weed control at 125 g/ha [4]: 70%
pest or weed control at 500 g/ha [4]: 100%
plant injury at 125 g/ha [5]: 70%
plant injury at 500 g/ha [5]: 100%
pest or weed control at 125 g/ha [6]: 40%
pest or weed control at 500 g/ha [6]: 90%
Corn plant response rating (crop injury, 0 = no effect, 100 = complete kill) at 125 g/ha [7]: 0%
Corn plant response rating (crop injury, 0 = no effect, 100 = complete kill) at 500 g/ha [7]: 60%
pest or weed control at 250 g/ha [8]: 55%
plant injury at 125 g/ha [9]: 20%
plant injury at 500 g/ha [9]: 70%
pest or weed control at 125 g/ha [10]: 90%
pest or weed control at 500 g/ha [10]: 100%
pest or weed control at 125 g/ha [11]: 0%
pest or weed control at 500 g/ha [11]: 30%
pest or weed control at 125 g/ha [12]: 50%
pest or weed control at 500 g/ha [12]: 50%
pest or weed control at 125 g/ha [13]: 40%
pest or weed control at 500 g/ha [13]: 90%
plant injury at 125 g/ha [14]: 0%
plant injury at 500 g/ha [14]: 50%
